Measurements as given in patent US11352394B2, “Cyclic cell penetrating peptides comprising beta-hairpin motifs and methods of making and using thereof” (Ohio State Innovation Foundation, priority 2016, dated 2022).
Several values for one entry are separate records, joined by “and”; a condition that tells them apart may be missing. Identical values can stand only once. Bridge positions count the residues as written; N and C are the ends. Square brackets hold non-standard residues; d marks the D form. Ends that are not written are not given here. Peptide text beside a SMILES is read from it. 2Nal = N[C@@H](Cc1ccc2ccccc2c1)C(=O)O; d2Nal = N[C@H](Cc1ccc2ccccc2c1)C(=O)O; NF = naphthofluorescein

Experiments:
HeLa cells = test: Cellular (cytosolic) uptake of NF-labeled peptides by flow cytometry (MFI); format: cell-based; details: for Cellular Uptake (MFI^NF, %), cytosolic delivery efficiency of CPPs without beta-hairpin moiety: relative to CPP 1 (100%), mean ± S.D. of three independent experiments; for Cellular Uptake (MFINF, %) / Cellular entry / delivery efficiency (in words) / Cellular Uptake (MFI^NF, %) of Keap1-Nrf2 inhibitors: flow cytometry; for Cellular Uptake (MFINF, %) / Cellular Uptake (MFI^NF, %) of Keap1-Nrf2 inhibitors: relative to CPP1 (100%); for Improvement of cytosolic entry efficiency relative to BH4: D-amino acid diastereomers of BH4; for Cellular Uptake (MFI^NF, %) of β-hairpin transporters: 5 μM peptide; for Cellular Uptake (MFI^NF, %) of Keap1-Nrf2 inhibitors: NF-labeled peptide
Description: HeLa cells were treated with 5 μM peptide for 2 h, and their cell uptake efficiencies were determined by flow cytometry analysis. The mean fluorescence intensity (MFI) values derived from cytometry analyses reflect the amounts of peptides inside the cytosol and nucleus, whereas any NF-labeled peptide entrapped inside the acidic endosomes are invisible under the experimental conditions (Id.; Qian, Z et al. Chem. Commun. 2015, 51, 2162-2165).
The binding affinity of BH23 (unlabeled) for the Grb2 SH2 domain was then determined by examining its ability to compete with the FAM-labeled ligand for binding to the Grb2 SH2 domain by fluorescence polarization (FP). […] Next, BH23 was labeled with NF at the Asn side chain through a miniPEG-Lys linker and its cytosolic entry efficiency was quantitated by treating HeLa cells with 5 μM of the labeled peptide for 2 h before flow cytometry analysis. […] BH23 was also similarly labeled at the Asn side chain with FAM and its entry into HeLa cells was examined by live-cell confocal microscopy. […] Two control peptides (BH24 and BH25) were also prepared for cellular assays. BH24 and BH25 are structurally similar to BH23, except that BH24 contained a Tyr instead of the pY residue (FIG. 11), whereas in BH25 the two hydrophobic residues critical for cellular uptake (Nal-arg) were replaced with Ala-ala (FIG. 12).
BHT1 and BHT2 were labeled with naphthofluorescein (NF) and their cytosolic uptake into HeLa cells was determined by flow cytometry (Table 10).
Additional cell penetrating compounds were prepared and tested for cytosolic delivery. In these compounds there was no beta-hairpin turn creating moiety.

Keap1-Nrf2 interaction = Keap1-Nrf2 interaction (Homo sapiens, UniProt Q14145); test: Fluorescence anisotropy-based competition assay, inhibition of Keap1-Nrf2 peptide interaction; format: binding; details: for IC50: FA competition with fluorescently labeled Nrf2 peptide and Keap1; for Decrease of affinity for Keap1 / inhibition potency: Asn-Ala analogues vs Asp-Pro parents (BH13, BH15, BH17), BH19: truncation of cargo to 6-aa
Description: The percentage of inhibition was calculated from the fluorescence anisotropy decrease by using equation % Inhibition=(FAmax−FAobs)/(FAmax−FAmin)×100% and plotted against the inhibitor concentration.

[1] = HeLa cells, 5 μM NF-labeled peptide, 2 h
[2] = HeLa cells, 2 h, DMEM with 10% FBS and 1% ABS, relative to CPP9 (100%)

Sequence of Keap1-Nrf2 interaction (Q14145 321-609 limits assumed): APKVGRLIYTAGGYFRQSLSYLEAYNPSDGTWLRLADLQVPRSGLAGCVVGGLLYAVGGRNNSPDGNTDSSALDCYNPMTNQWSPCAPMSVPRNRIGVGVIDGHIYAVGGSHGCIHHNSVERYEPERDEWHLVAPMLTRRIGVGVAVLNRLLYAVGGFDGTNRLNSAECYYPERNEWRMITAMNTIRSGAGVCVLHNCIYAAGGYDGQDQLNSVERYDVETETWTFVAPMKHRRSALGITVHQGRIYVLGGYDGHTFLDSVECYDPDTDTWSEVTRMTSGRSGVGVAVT

285 (CFWRRRRC; disulfide 1-8) [Peptide 285]
Cellular Uptake (MFI^NF, %), cytosolic delivery efficiency of CPPs without beta-hairpin moiety (HeLa cells): 49%

286 (CWWWRRRC; disulfide 1-8) [Peptide 286]
Cellular Uptake (MFI^NF, %), cytosolic delivery efficiency of CPPs without beta-hairpin moiety (HeLa cells): 135%

CC(C)C[C@@H]1NC(=O)[C@H](CCC(N)=O)NC(=O)[C@H](Cc2ccccc2)NC(=O)[C@H](CCCNC(=N)N)NC(=O)[C@H](CCCNC(=N)N)NC(=O)[C@@H]2CCCN2C(=O)[C@H]2CCCN2C(=O)[C@@H](CCCNC(=N)N)NC(=O)[C@H](Cc2ccc3ccccc3c2)NC(=O)[C@H](Cc2ccccc2)NC(=O)[C@H](Cc2ccccc2)NC(=O)[C@H](CCC(=O)O)NC(=O)CNC(=O)[C@H]([C@@H](C)O)NC(=O)[C@H](CCC(=O)O)NC(=O)[C@@H]2CCCN2C(=O)[C@H](CC(=O)O)NC1=O [BH13, cyclo(F-F-Φ-r-p-P-R-R-F-Q-L-D-P-E-T-G-E)] (cyclo(FF[2Nal][dR][dP]PRRFQLDPETGE))
IC50 (Keap1-Nrf2 interaction): ~160 nM

CC(C)C[C@@H]1NC(=O)[C@H](CCC(N)=O)NC(=O)[C@H](Cc2ccccc2)NC(=O)[C@H](CCCNC(=N)N)NC(=O)[C@H](CCCNC(=N)N)NC(=O)[C@@H]2CCCN2C(=O)[C@H]2CCCN2C(=O)[C@@H](CCCNC(=N)N)NC(=O)[C@H](Cc2ccc3ccccc3c2)NC(=O)[C@H](Cc2ccccc2)NC(=O)[C@H](Cc2ccccc2)NC(=O)[C@H](CCC(=O)O)NC(=O)CNC(=O)[C@H]([C@@H](C)O)NC(=O)[C@H](CCC(=O)O)NC(=O)[C@H](C)NC(=O)[C@H](CC(N)=O)NC1=O [BH14, cyclo(F-F-Φ-r-p-P-R-R-F-Q-L-N-A-E-T-G-E)] (cyclo(FF[2Nal][dR][dP]PRRFQLNAETGE))
Decrease of affinity for Keap1 / inhibition potency (Keap1-Nrf2 interaction): ~10 fold
IC50 (Keap1-Nrf2 interaction): 1400 ± 130 nM

CC(C)C[C@@H]1NC(=O)[C@H](Cc2ccccc2)NC(=O)[C@H](CCCNC(=N)N)NC(=O)[C@H](CCCNC(=N)N)NC(=O)[C@@H]2CCCN2C(=O)[C@H]2CCCN2C(=O)[C@@H](CCCNC(=N)N)NC(=O)[C@H](Cc2ccc3ccccc3c2)NC(=O)[C@H](Cc2ccccc2)NC(=O)[C@H](Cc2ccccc2)NC(=O)[C@H](CCC(=O)O)NC(=O)CNC(=O)[C@H]([C@@H](C)O)NC(=O)[C@H](CCC(=O)O)NC(=O)[C@H](C)NC(=O)[C@H](CC(N)=O)NC1=O [BH16, cyclo(F-F-Φ-r-p-P-R-R-F-L-N-A-E-T-G-E)] (cyclo(FF[2Nal][dR][dP]PRRFLNAETGE))
Decrease of affinity for Keap1 / inhibition potency (Keap1-Nrf2 interaction): ~10 fold

cyclo(A-A-F-R-R-p-P-R-R-Φ-A-A-A-Q)-miniPEG-K(NF) (cyclo(AAFRR[dP]PRR[2Nal]AAAQ); not fully specified (residue 14); printed as cyclo(A-A-F-R-R-p-P-R-R-Φ-A-A-A-Q)-miniPEG-K(NF)) [BH2]
Cellular Uptake (MFINF, %) (HeLa cells; [1]): 24 ± 1%

cyclo(A-A-F-Φ-F-p-P-R-R-R-A-A-A-Q)-miniPEG-K(NF) (cyclo(AAF[2Nal]F[dP]PRRRAAAQ); not fully specified (residue 14); printed as cyclo(A-A-F-Φ-F-p-P-R-R-R-A-A-A-Q)-miniPEG-K(NF)) [BH3]
Cellular Uptake (MFINF, %) (HeLa cells; [1]): 30 ± 6%

cyclo(A-A-F-Φ-R-p-P-R-R-F-A-A-A-Q)-miniPEG-K(NF) (cyclo(AAF[2Nal]R[dP]PRRFAAAQ); not fully specified (residue 14); printed as cyclo(A-A-F-Φ-R-p-P-R-R-F-A-A-A-Q)-miniPEG-K(NF)) [BH4]
Cellular Uptake (MFINF, %) (HeLa cells; [1]): 73 ± 6%
Cellular entry / delivery efficiency (in words) (HeLa cells; HeLa cells): taken up most efficiently

cyclo(A-A-F-Φ-R-p-P-R-R-R-A-A-A-Q)-miniPEG-K(NF) (cyclo(AAF[2Nal]R[dP]PRRRAAAQ); not fully specified (residue 14); printed as cyclo(A-A-F-Φ-R-p-P-R-R-R-A-A-A-Q)-miniPEG-K(NF)) [BH1]
Cellular Uptake (MFINF, %) (HeLa cells; [1]): 66 ± 12%

cyclo(A-A-F-Φ-R-p-P-R-r-F-A-A-A-Q)-miniPEG-K(NF) (cyclo(AAF[2Nal]R[dP]PR[dR]FAAAQ); not fully specified (residue 14); printed as cyclo(A-A-F-Φ-R-p-P-R-r-F-A-A-A-Q)-miniPEG-K(NF)) [BH7]
Cellular Uptake (MFINF, %) (HeLa cells; [1]): 363 ± 213%
Improvement of cytosolic entry efficiency relative to BH4 (HeLa cells; HeLa cells): 5 fold

cyclo(A-A-F-Φ-R-p-P-r-R-F-A-A-A-Q)-miniPEG-K(NF) (cyclo(AAF[2Nal]R[dP]P[dR]RFAAAQ); not fully specified (residue 14); printed as cyclo(A-A-F-Φ-R-p-P-r-R-F-A-A-A-Q)-miniPEG-K(NF)) [BH5]
Cellular Uptake (MFINF, %) (HeLa cells; [1]): 102 ± 45%
Improvement of cytosolic entry efficiency relative to BH4 (HeLa cells; HeLa cells): only minor effect

cyclo(A-A-F-Φ-r-p-P-R-R-F-A-A-A-Q)-miniPEG-K(NF) (cyclo(AAF[2Nal][dR][dP]PRRFAAAQ); not fully specified (residue 14); printed as cyclo(A-A-F-Φ-r-p-P-R-R-F-A-A-A-Q)-miniPEG-K(NF)) [BH6]
Cellular Uptake (MFINF, %) (HeLa cells; [1]): 431 ± 169%
Improvement of cytosolic entry efficiency relative to BH4 (HeLa cells; HeLa cells): 6 fold

cyclo(A-A-F-φ-R-p-P-R-R-F-A-A-A-Q)-miniPEG-K(NF) (cyclo(AAF[d2Nal]R[dP]PRRFAAAQ); not fully specified (residue 14); printed as cyclo(A-A-F-φ-R-p-P-R-R-F-A-A-A-Q)-miniPEG-K(NF)) [BH8]
Cellular Uptake (MFINF, %) (HeLa cells; [1]): 235%
Improvement of cytosolic entry efficiency relative to BH4 (HeLa cells; HeLa cells): 3 fold

cyclo(A-E-T-G-E-F-L-F-Φ-r-p-P-R-R-F-L-Q)-miniPEG-K(NF) (cyclo(AETGEFLF[2Nal][dR][dP]PRRFLQ); not fully specified (residue 17); printed as cyclo(A-E-T-G-E-F-L-F-Φ-r-p-P-R-R-F-L-Q)-miniPEG-K(NF)) [BH12]
Cytosolic entry efficiency, fold higher than CPP1 (HeLa cells; HeLa cells): 5.8 fold
Cellular Uptake (MFINF, %) (HeLa cells; [1]): 575 ± 239%

cyclo(AFΦPRRFQ)-miniPEG-K(NF) [BHT1]
Cellular Uptake (MFI^NF, %) of β-hairpin transporters (HeLa cells; [2]): 88% and 88 ± 11%

cyclo(D-A-F-Φ-r-p-P-R-R-F-D-A-D-Q)-miniPEG-K(NF) (cyclo(DAF[2Nal][dR][dP]PRRFDADQ); not fully specified (residue 14); printed as cyclo(D-A-F-Φ-r-p-P-R-R-F-D-A-D-Q)-miniPEG-K(NF)) [BH10]
Cellular Uptake (MFINF, %) (HeLa cells; [1]): 44 ± 19%
Cellular entry / delivery efficiency (in words) (HeLa cells; HeLa cells): lowest delivery efficiency

cyclo(FΦrpPRRFAQ)-miniPEG-K(NF) (cyclo(F[2Nal][dR][dP]PRRFAQ); not fully specified (residue 10); printed as cyclo(FΦrpPRRFAQ)-miniPEG-K(NF)) [BHT2]
Cellular Uptake (MFI^NF, %) of β-hairpin transporters (HeLa cells; [2]): 15% and 15 ± 2%

cyclo(R-A-F-Φ-r-p-P-R-R-F-R-A-R-Q)-miniPEG-K(NF) (cyclo(RAF[2Nal][dR][dP]PRRFRARQ); not fully specified (residue 14); printed as cyclo(R-A-F-Φ-r-p-P-R-R-F-R-A-R-Q)-miniPEG-K(NF)) [BH9]
Cellular Uptake (MFINF, %) (HeLa cells; [1]): 104 ± 27%

cyclo(S-A-S-F-Φ-r-p-P-R-R-F-S-A-S-A-Q)-miniPEG-K(NF) (cyclo(SASF[2Nal][dR][dP]PRRFSASAQ); not fully specified (residue 16); printed as cyclo(S-A-S-F-Φ-r-p-P-R-R-F-S-A-S-A-Q)-miniPEG-K(NF)) [BH11]
Cellular Uptake (MFINF, %) (HeLa cells; [1]): 245 ± 16%

cyclo(f-Φ-R-r-R-r-Q)-miniPEG-K(NF) (cyclo([dF][2Nal]R[dR]R[dR]Q); not fully specified (residue 7); printed as cyclo(f-Φ-R-r-R-r-Q)-miniPEG-K(NF)) [CPP9, reference compound]
Cellular Uptake (MFI^NF, %), cytosolic entry efficiency (HeLa cells; HeLa cells, 5 μM NF-labeled peptide, 2 h, DMEM with 10% FBS and 1% ABS, relative to CPP9 (100%)): 100%
Cellular Uptake (MFI^NF, %) of β-hairpin transporters (HeLa cells; [2]): 100%

cyclo[F-F-Φ-r-P-p-R-R-F-Q-K(NF)-D-P-E-T-G-E] (cyclo(FF[2Nal][dR]P[dP]RRFQK(NF)DPETGE)) [BH22]
Cellular Uptake (MFI^NF, %) of Keap1-Nrf2 inhibitors (HeLa cells; HeLa cells): 56.9%
Cellular entry, fold less efficient than BH20 (HeLa cells; HeLa cells, -L-Pro-D-Pro- instead of -D-Pro-L-Pro-): ~2 fold

cyclo[F-F-Φ-r-p-P-R-R-F-Q-K(NF)-D-P-E-T-G-E] (cyclo(FF[2Nal][dR][dP]PRRFQK(NF)DPETGE)) [BH20]
Cellular Uptake (MFI^NF, %) of Keap1-Nrf2 inhibitors (HeLa cells; HeLa cells): 122.4%
Cellular entry / delivery efficiency (in words) (HeLa cells; HeLa cells): less efficiently than BH6 and BH12

cyclo[F-Φ-r-p-P-R-R-F-K(NF)-D-P-E-T-G-E] (cyclo(F[2Nal][dR][dP]PRRFK(NF)DPETGE)) [BH21]
Cellular Uptake (MFI^NF, %) of Keap1-Nrf2 inhibitors (HeLa cells; HeLa cells): 44.6%
Cellular entry / delivery efficiency (in words) (HeLa cells; HeLa cells): less efficiently than BH6 and BH12
